Each structure is given as a SMILES string.

In turn, `*/C=C(/*)CCCOc1ccc(OC(=O)c2ccc(OCCCC)cc2)cc1` (repeat unit) displayed a glass transition temperature of 36.00 °C.

Take `*/N=N/c1ccc(Nc2ccc(C(=O)c3ccc(C(=O)c4ccc(Nc5ccc(*)cc5)cc4)cc3)cc2)cc1` (repeat unit): the glass transition temperature amounted to 203.00 °C.

In the case of `*C(=O)Nc1ccc(C(=O)c2ccc(NC(=O)c3ccc4c(c3)C(=O)N(c3ccc(NC(=O)Nc5ccc(N6C(=O)c7ccc(*)cc7C6=O)cc5)cc3)C4=O)cc2)cc1` (repeat unit), the glass transition temperature was determined as 212.00 °C.

For `*C(=O)Nc1ccc(C(c2ccc(NC(=O)c3ccc4c(c3)C(=O)N(c3ccc(Oc5cccc6c(Oc7ccc(N8C(=O)c9ccc(*)cc9C8=O)cc7)cccc56)cc3)C4=O)cc2)(C(F)(F)F)C(F)(F)F)cc1` (repeat unit), the glass transition temperature was found to be 283.00 °C.

Take `*C(=O)Nc1ccc(C2(c3ccc(NC(=O)c4ccc5c(c4)C(=O)N(c4ccc(Oc6ccc(N7C(=O)c8ccc(*)cc8C7=O)cc6)cc4)C5=O)cc3)c3ccccc3-c3ccccc32)cc1` (repeat unit): the glass transition temperature was found to be 240.00 °C.

Compound `*C(=O)Nc1ccc(C2(c3ccc(NC(=O)c4ccc5c(c4)C(=O)N(c4ccc(Sc6ccc(Oc7ccc(Sc8ccc(N9C(=O)c%10ccc(*)cc%10C9=O)cc8)cc7)cc6)cc4)C5=O)cc3)c3ccccc3-c3ccccc32)cc1` (repeat unit) yielded a glass transition temperature of 298.00 °C.

With `*C(=O)Nc1ccc(C2(c3ccc(NC(=O)c4ccc5c(c4)C(=O)N(c4cccc(N6C(=O)c7ccc(*)cc7C6=O)c4)C5=O)cc3)c3ccccc3-c3ccccc32)cc1` (repeat unit), the glass transition temperature came to 209.00 °C.

As to `*C(=O)Nc1ccc(Cc2ccc(N3C(=O)c4ccc(*)cc4C3=O)cc2)cc1` (repeat unit), the glass transition temperature came out at 279.50 °C.

`*C(=O)Nc1ccc(Cc2ccc(NC(=O)c3ccc(N4C(=O)c5ccc(*)cc5C4=O)cc3)cc2)cc1` (repeat unit): the glass transition temperature stood at 222.00 °C.

`*C(=O)Nc1ccc(Cc2ccc(NC(=O)c3ccc4c(c3)C(=O)N(c3ccc(Oc5ccc6ccc(Oc7ccc(N8C(=O)c9ccc(*)cc9C8=O)cc7)cc6c5)cc3)C4=O)cc2)cc1` (repeat unit) displayed a glass transition temperature of 273.00 °C.

With `*C(=O)Nc1ccc(Cc2ccc(NC(=O)c3ccc4c(c3)C(=O)N(c3cccc(P(=O)(c5ccccc5)c5cccc(N6C(=O)c7ccc(*)cc7C6=O)c5)c3)C4=O)cc2)cc1` (repeat unit), the glass transition temperature was determined as 233.00 °C.

Consider `*C(=O)Nc1ccc(NC(=O)c2ccc3c(c2)C(=O)N(c2cc(-c4nc5ccccc5s4)cc(N4C(=O)c5ccc(*)cc5C4=O)c2)C3=O)cc1` (repeat unit), for which the glass transition temperature was found to be 356.00 °C.

On to `*C(=O)Nc1ccc(NC(=O)c2ccc3c(c2)C(=O)N(c2cccc(N4C(=O)c5ccc(*)cc5C4=O)c2)C3=O)cc1` (repeat unit), for which the glass transition temperature turned out to be 341.00 °C.

As for `*C(=O)c1ccc2c(c1)C(=O)N(c1ccc(Oc3ccc(C(=O)c4ccc(C(=O)c5ccc(C(=O)c6ccc(Oc7ccc(N8C(=O)c9ccc(*)cc9C8=O)cc7)cc6)cc5)cc4)cc3)cc1)C2=O` (repeat unit), the glass transition temperature was determined as 233.00 °C.

On to `*CC1CCC(COC(=O)Nc2ccc(Cc3ccc(NC(=O)O*)cc3)cc2)CC1` (repeat unit), for which the glass transition temperature worked out at 134.00 °C.

In turn, `*CCCCCCCCCCCCCCCCOC(=O)Nc1ccc(Cc2ccc(NC(=O)O*)cc2)cc1` (repeat unit) displayed a glass transition temperature of 40.00 °C.

For the compound `*CCCCCCCCCCOC(=O)Nc1ccc(Cc2ccc(NC(=O)O*)cc2)cc1` (repeat unit), the glass transition temperature amounted to 60.00 °C.

With `*CCCCCCCCCOC(=O)Nc1ccc(Cc2ccc(NC(=O)O*)cc2)cc1` (repeat unit), the glass transition temperature worked out at 72.00 °C.

The compound `*CCCCCCCCOc1ccc(NC(=O)c2cccc(C(=O)Nc3ccc(O*)cc3)c2)cc1` (repeat unit) had a glass transition temperature of 128.00 °C.

In turn, `*CCCCCCOC(=O)Nc1ccc(Cc2ccc(NC(=O)O*)cc2)cc1` (repeat unit) returned a glass transition temperature of 71.00 °C.

Regarding `*CCCCCOC(=O)Nc1ccc(Cc2ccc(NC(=O)O*)cc2)cc1` (repeat unit), the glass transition temperature turned out to be 95.00 °C.

For `*CCOC(=O)Nc1ccc(CCCc2ccc(NC(=O)O*)cc2)cc1` (repeat unit), the glass transition temperature came out at 74.10 °C.

In turn, `*CCOC(=O)Nc1ccc(Cc2ccc(NC(=O)O*)cc2)cc1` (repeat unit) showed a glass transition temperature of 139.00 °C.

On to `*CCc1ccc(NC(=O)c2cccc(C(=O)Nc3ccc(CCOC(=O)c4cccc(C(=O)O*)c4)cc3)c2)cc1` (repeat unit), for which the glass transition temperature turned out to be 142.00 °C.

With `*COC(=O)Nc1ccc(Cc2ccc(NC(=O)OCc3cocc3*)cc2)cc1` (repeat unit), the glass transition temperature came to 45.00 °C.

Regarding `*Nc1ccc(C(c2ccc(NC(=O)c3cc(NC(=O)C45CC6CC(CC(C6)C4)C5)cc(C(*)=O)c3)cc2)(C(F)(F)F)C(F)(F)F)cc1` (repeat unit), the glass transition temperature was determined as 365.00 °C.

For the compound `*Nc1ccc(C(c2ccc(NC(=O)c3ccc(C(*)=O)cc3)cc2)(C(F)(F)F)C(F)(F)F)cc1` (repeat unit), the glass transition temperature was found to be 290.00 °C.

As for `*Nc1ccc(C(c2ccc(NC(=O)c3cccc(C(*)=O)c3)cc2)(C(F)(F)F)C(F)(F)F)cc1` (repeat unit), the glass transition temperature is 272.00 °C.

In turn, `*Nc1ccc(C2(c3ccc(NC(=O)c4cccc(C(*)=O)c4)cc3)c3ccccc3-c3ccccc32)cc1` (repeat unit) had a glass transition temperature of 277.00 °C.

Consider `*Nc1ccc(Cc2ccc(NC(=O)c3cc(C(*)=O)cc(N4C(=O)C5C6CCC(C6)C5C4=O)c3)cc2)cc1` (repeat unit), for which the glass transition temperature worked out at 293.00 °C.

Compound `*Nc1ccc(Cc2ccc(NC(=O)c3cc(C(*)=O)cc(S(=O)(=O)c4ccccc4)c3)cc2)cc1` (repeat unit) returned a glass transition temperature of 270.00 °C.

`*Nc1ccc(Cc2ccc(NC(=O)c3ccc(C(*)=O)cc3)cc2)cc1` (repeat unit) came in with a glass transition temperature of 294.50 °C.

`*Nc1ccc(Cc2ccc(NC(=O)c3cccc(C(*)=O)c3)cc2)cc1` (repeat unit): the glass transition temperature came out at 265.00 °C.

`*Nc1ccc(NC(=O)c2cc(C(=O)c3ccc(C(=O)O)c(C(*)=O)c3)ccc2C(=O)O)cc1` (repeat unit) came in with a glass transition temperature of 213.20 °C.

In the case of `*Nc1ccc(NC(=O)c2ccc(C(=O)c3ccc(C(*)=O)c(C(=O)O)c3)cc2C(=O)O)cc1` (repeat unit), the glass transition temperature was determined as 317.00 °C.

The compound `*Nc1ccc(NC(=O)c2ccc(P(=O)(c3ccccc3)c3ccc(C(*)=O)cc3)cc2)cc1` (repeat unit) came in with a glass transition temperature of 252.00 °C.

As for `*Nc1ccc(Nc2ccc(C(=O)c3ccc(C(=O)c4ccc(*)cc4)cc3)cc2)cc1` (repeat unit), the glass transition temperature was 203.50 °C.

`*Nc1cccc(CCc2ccc(NC(=O)c3ccc(C(*)=O)cc3)cc2)c1` (repeat unit) registered a glass transition temperature of 203.00 °C.

Take `*Nc1ccccc1CCc1ccc(NC(=O)Nc2ccc(CCc3ccc(NC(*)=O)cc3)cc2)cc1` (repeat unit): the glass transition temperature came to 217.00 °C.

`*OP(=O)(Oc1ccc(NC(=O)OCCCCCCOC(=O)Nc2ccc(*)cc2)cc1)c1ccccc1` (repeat unit) showed a glass transition temperature of -3.00 °C.

In the case of `*Oc1ccc(C(=O)Nc2ccc(C(c3ccc(NC(=O)c4ccc(*)cc4)cc3)(P3(=O)Oc4ccccc4-c4ccccc43)P3(=O)Oc4ccccc4-c4ccccc43)cc2)cc1` (repeat unit), the glass transition temperature amounted to 243.00 °C.

On to `*Oc1ccc(C(c2ccc(OC(=O)Nc3ccc(Cc4ccc(NC(*)=O)cc4)cc3)cc2)(C(F)(F)F)C(F)(F)F)cc1` (repeat unit), for which the glass transition temperature amounted to 81.00 °C.

In turn, `*Oc1ccc(C(c2ccc(Oc3ccc(C(=O)Nc4ccc(NC(=O)c5ccc(*)cc5)cc4)cc3)cc2)(C(F)(F)F)C(F)(F)F)cc1` (repeat unit) came in with a glass transition temperature of 218.00 °C.

As to `*Oc1ccc(NC(=O)Nc2ccccc2CCc2ccc(NC(=O)Nc3ccc(*)cc3)cc2)cc1` (repeat unit), the glass transition temperature stood at 200.00 °C.

Compound `*Oc1ccc(NC(=O)c2ccc(C(=O)Nc3ccc(OC4COC5C(*)COC45)cc3)cc2)cc1` (repeat unit) gave a glass transition temperature of 57.00 °C.

In turn, `*Oc1ccc(NC(=O)c2ccc(OC3COC4C(Oc5ccc(C(=O)Nc6ccc(OC7COC8C(*)COC78)cc6)cc5)COC34)cc2)cc1` (repeat unit) displayed a glass transition temperature of 165.00 °C.

Consider `*c1ccc(C(=O)c2ccc(Oc3ccc(-c4nn(*)c(=O)c5ccccc45)c(F)c3)cc2)cc1` (repeat unit), for which the glass transition temperature was 253.00 °C.

`*c1ccc(C(=O)c2ccc(Oc3ccc(-c4nn(*)c(=O)c5ccccc45)cc3Br)cc2)cc1` (repeat unit): the glass transition temperature amounted to 254.00 °C.

`*c1ccc(Cc2ccc(NC(=O)c3cccc(-c4nc5cc(-c6ccc7[nH]c(-c8cccc(C(=O)Nc9ccc(Cc%10ccc(-n%11c(=O)c%12cc%13c(=O)n(*)c(=O)c%13cc%12c%11=O)cc%10)cc9)c8)nc7c6)ccc5[nH]4)c3)cc2)cc1` (repeat unit): the glass transition temperature worked out at 277.00 °C.

Compound `*c1ccc(Cc2ccc(NC(=O)c3cccc(Oc4ccc5c(c4)C(=O)N(*)C5=O)c3)cc2)cc1` (repeat unit) had a glass transition temperature of 243.00 °C.

With `*c1ccc(Oc2ccc(C(=O)c3ccc(C(=O)c4ccc(C(=O)c5ccc(Oc6ccc(-c7nc(-c8ccccc8)[nH]c7*)cc6)cc5)cc4)cc3)cc2)cc1` (repeat unit), the glass transition temperature was found to be 239.00 °C.

For `*c1ccc2c(c1)C(=O)N(c1ccc(C(=O)Nc3ccc(C(c4ccc(NC(=O)c5ccc(N6C(=O)c7ccc(C(*)(C(F)(F)F)C(F)(F)F)cc7C6=O)cc5)cc4)(C(F)(F)F)C(F)(F)F)cc3)cc1)C2=O` (repeat unit), the glass transition temperature was found to be 351.00 °C.

`*c1ccc2c(c1)C(=O)N(c1cccc(C(=O)Nc3ccc(C(c4ccc(NC(=O)c5cccc(N6C(=O)c7ccc(C(*)(C(F)(F)F)C(F)(F)F)cc7C6=O)c5)cc4)(C(F)(F)F)C(F)(F)F)cc3)c1)C2=O` (repeat unit) came in with a glass transition temperature of 273.50 °C.

(Values after the PolyMetriX glass transition set.)
